Results reported in publication PMC3626118 (Combinatorial chemistry & high throughput screening, 2009).

Tests used:
[1] = biological target: T1, RNA triphosphatase TbCet1 (Trypanosoma brucei brucei, UniProt Q582T2); assay: Transcreener ADP fluorescence polarization assay, dose-response; type: biochemical
T1 sequence (Q582T2 1-253): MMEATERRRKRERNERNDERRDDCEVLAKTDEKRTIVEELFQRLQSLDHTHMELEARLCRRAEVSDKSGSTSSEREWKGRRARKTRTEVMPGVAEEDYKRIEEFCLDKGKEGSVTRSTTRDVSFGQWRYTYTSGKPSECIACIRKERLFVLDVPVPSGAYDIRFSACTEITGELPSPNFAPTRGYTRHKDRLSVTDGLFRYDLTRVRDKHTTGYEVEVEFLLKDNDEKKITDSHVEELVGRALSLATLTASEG

[2] = physchem; details: pH 8, aqueous buffer, kinetic from dmso stock
[3] = Solubility by laser nephelometry in assay conditions; details: for Sol. (solubility threshold): laser nephelometry, assay conditions

SMILES	IC50 [1] [nM]	also measured
Oc1cc2c(cc1O)C1c3ccc(O)c(O)c3OCC1(O)C2 (stereo not shown) [SKI 209325, Haematoxylin]	1700	solubility [2]: > 100 µM
O=c1c(O)cc([C@H]2Oc3cc(O)cc(O)c3C[C@H]2O)cc2c([C@H]3Oc4cc(O)cc(O)c4C[C@H]3O)cc(O)c(O)c12 [SKI 209343, Theaflavin]	8800	–
O=c1c(-c2cc(O)c(O)c(O)c2)coc2cc(O)c(O)c(O)c12 [SKI 209392, Irigenol]	65	–
O=C(O[C@@H]1Cc2c(O)cc(O)cc2O[C@@H]1c1cc(O)c(O)c(O)c1-c1c([C@H]2Oc3cc(O)cc(O)c3C[C@H]2O)cc(O)c(O)c1O)c1cc(O)c(O)c(O)c1 [SKI 209412, 2′,2′-Bisepigallocatechin monogallate]	10	–
O=C(Oc1cc(O)cc2c1C[C@@H](OC(=O)c1cc(O)c(O)c(O)c1)[C@@H](c1cc(O)c(O)c(O)c1)O2)c1cc(O)c(O)c(O)c1 [SKI 209415, Epigallocatechin-3,5-digallate]	–	Sol. (solubility threshold) [3]: > 100 µM
Oc1cc(O)c2c(c1)O[C@H](c1cc(O)c(O)c(O)c1)[C@H](O)C2 [SKI 209444, Epigallocatechin]	4400	–
O=C(O[C@@H]1Cc2c(O)cc(O)cc2O[C@@H]1c1ccc(O)c(O)c1)c1cc(O)c(O)c(O)c1 [SKI 209457, Epicatechin monogallate]	–	Sol. (solubility threshold) [3]: > 100 µM
O=C(O[C@@H]1Cc2c(O)cc(O)cc2O[C@@H]1c1cc(O)c(O)c(O)c1)c1cc(O)c(O)c(O)c1 [SKI 209458, Epigallocatechin-3-monogallate]	–	Sol. (solubility threshold) [3]: > 100 µM
O=c1c(O)cccc2cc(O)c(O)c(O)c12 [SKI 209468, Purpurogallin]	210	–
O=c1c(O)cccc2c([C@H]3Oc4cc(O)cc(O)c4C[C@H]3O)cc(O)c(O)c12 [SKI 209509, Theaflavanin]	440	–
COc1cc(O)c2c(=O)c(O)c(-c3ccc(O)c(O)c3)oc2c1 [SKI 209674, Rhamnetin]	3900	–
NC[C@H](O)c1ccc(O)c(O)c1 [SKI 210170, Norepinephrine, reference compound]	720	solubility [2]: > 100 µM
O=c1oc2c(O)c(O)cc3c(=O)oc4c(O)c(O)cc1c4c23 [SKI 210886, Ellagic acid]	35	–
O=c1c(O)c(-c2ccc(O)c(O)c2)oc2cc(O)ccc12 [SKI 210887, Fisetin]	2100	–
O=C1C=C2CC3(O)COc4c(ccc(O)c4O)C3=C2C=C1O (stereo not shown) [SKI 210893, Hematein]	200	–
O=c1c(O)c(-c2cc(O)c(O)c(O)c2)oc2cc(O)cc(O)c12 [SKI 211290, Myricetin]	7200	solubility ([3]; pH 8, aqueous buffer, kinetic from dmso stock): > 100 µM
N[C@@H](Cc1ccc(O)c(O)c1)C(=O)O [SKI 211511, Levodopa, reference compound]	30	solubility [2]: > 100 µM
Nc1cccc2c1C(=O)c1cccc(N)c1C2=O [SKI 217754, Anthraquinone, 1,5-diamino]	–	Sol. (solubility threshold) [3]: > 100 µM
